Tests used:
[1] = biological target: T1, Cdc42 (Mus musculus, UniProt P60766); assay: GLISA, Swiss 3T3 cells; assay type: cell-based; settings: at 10 μM
T1 construct: endogenous in cells; host or cells: Swiss 3T3

[2] = IV dose of 30 mg; cited from earlier work
[3] = test system: migration Rac1/Cdc42 dependent; assay: Migration IC50 (Table F); assay type: cell-based; settings: ketorolac, calculated by GraphPad Prism5; read-out: IC50 migration Rac1/Cdc42 dependent (est)
[4] = test system: Rab2 wt, Rab7 wt, Cdc42 wt, Cdc42Q61L, H-Ras wt, H-RasG12V, Rac1 wt and Rac1Q61L; assay: Primary multiplex screen, BODIPY-FL-GTP binding on bead-bound GTPases (flow cytometry); settings: for Primary Screen Hit: single dose 10 µM, change in BODIPY-GTP binding on any one GTPase
[5] = test system: Rac1 membrane localization; assay: Rac1 immunolocalization, OvCa433 cells; assay type: cell-based, human; settings: for Rac1 membrane localization: 300 μM
[6] = test system: Ras-related GTPases; assay: Confirmatory dose response assays on eight Ras-related GTPases; assay type: binding; settings: 10 nM to 100 µM
Method: For multiplex analyses of small GTPases, 4 μm diameter glutathione-beads (GSH-beads) distinguished by seven different intensities of red fluorescence were used according to our previously described protocols. The GST-GTPases included the following eight Ras-related small GTPases: Rab2 wt, Rab7 wt, Cdc42 wt, Cdc42Q61L activating mutant, H-Ras wt, H-RasG12V, Rac1 wt and Rac1Q61L activating mutant. Briefly, Prestwick Chemical Library® compounds were tested at 10 μM compound and 1% DMSO final concentrations. After a 10 min pre-incubation with the compound BODIPY- FL-GTP (100 nM final) was added to each well and bead associated fluorescence was measured. Sample analysis was conducted with a HyperCyt® high throughput flow cytometry platform. Flow cytometric light scatter at 488 nm and fluorescence emission at 530 +/− 20 nm (FL1) and 665 +/− 10 nm (FL8) were collected on a Cyan ADP flow cytometer (Beckman Coulter, Fullerton, CA). IDLQuery software was used to determine the compound activity in each well. Gating based on forward scatter (FS) and side scatter (SS) parameters was used to identify singlet bead populations. Gating based on FL8 emission distinguishes the beads coated with different proteins, and the median FL1 fluorescence per bead population were calculated. A compound was considered a “potential active” if the change in BODIPY-FL-GTP binding differed greater than 20% from that measured in DMSO treated controls.
Test compounds identified for follow-up after the primary screen were tested at dilutions ranging from 10 nM to 100 μM final concentration against individual GTPases in multiplex and single-plex assays. Compounds tested in dose response assays were serially diluted 1:3 a total of eight times from a starting concentration of 10 mM giving a 9-point dilution series in DMSO.
bConfirmatory screens entailed dose response assays conducted in a multiplex format with eight GTPases tested as for primary screen. BODIPY-GTP-binding activity was
measured in the presence of 10 nM to 100 µM of each of 11 test compounds (4 primary screen hits and 7 additional NSAIDs considered to have chemical similarity to GTPase
active compounds). GST-GFP coated beads served as a control to detect non-specific dissociation or denaturation caused by compound addition–none of the tested NSAIDs had
any effect on bead-GST-protein binding. EC50 values were determined using Prism to determine dose response fits as shown in Figure 1 of main text; fits have R2 > 0.9. Active
compounds based on same definition used as in primary screena. […]
‡A well-characterized selective Cdc42 inhibitor served as a positive control.

[7] = biological target: Rac1 wt (Homo sapiens, UniProt P63000); assay: Dose response, BODIPY-GTP binding; settings: 10 nM to 100 µM

T1 sequence (P60766 whole entry): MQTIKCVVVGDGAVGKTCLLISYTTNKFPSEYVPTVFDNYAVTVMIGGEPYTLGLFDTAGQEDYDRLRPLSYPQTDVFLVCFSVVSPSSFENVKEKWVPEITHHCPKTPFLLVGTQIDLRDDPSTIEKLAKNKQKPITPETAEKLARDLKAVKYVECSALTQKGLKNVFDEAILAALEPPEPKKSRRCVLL

Row | Structure (SMILES) | Primary Screen Hit [4] | Rac1 membrane localization [5] | other results
1 | O=C(c1ccccc1)c1ccc2n1CCC2C(=O)O (racemic) [racemic ketorolac, ketorolac] |  |  | effect on Cdc42 relative to R-ketorolac [1]: approximately half the effect; Cmax [2]: 13.7 µM; IC50 [3]: 34 µM
2 | CC(=O)Nc1ccc(O)cc1 [Acetaminophen] | Inactive |  | 
3 | CC(=O)Oc1ccccc1C(=O)O [Acetylsalicylic acid] |  | did not alter | 
4 | CC(=O)Oc1ccccc1C(=O)Oc1ccccc1C(=O)O [Acetylsalicylsalicylic acid] | Inactive |  | 
5 | Cc1ccc(-c2cc(C(F)(F)F)nn2-c2ccc(S(N)(=O)=O)cc2)cc1 [Celecoxib] |  |  | activity against the GTPases in confirmatory dose response assays (words) [6]: inactive
6 | O=C(O)Cc1ccccc1Nc1c(Cl)cccc1Cl [Diclofenac sodium] | Inactive |  | 
7 | O=C(O)c1cc(-c2ccc(F)cc2F)ccc1O [Diflunisal] | Inactive |  | 
8 | CC(C(=O)O)c1cccc(Oc2ccccc2)c1 (stereo not shown) [Fenoprofen] | Active | did not alter | primary screen outcome ([4]; 10 μM compound): positive; Rac1 wt EC50 [7]: Inactive
9 | CC(C(=O)O)c1cccc(C(=O)c2ccccc2)c1 (stereo not shown) [Ketoprofen] |  | did not alter | Rac PM Localiz. ([5]; immunofluorescence quantified using ImageJ, assays performed with 0.1% DMSO): 45%
10 | CN1C(C(=O)Nc2ccccn2)=C(O)c2ccccc2S1(=O)=O [Piroxicam] | Inactive |  | 
